# ChEMBL document CHEMBL1909046, “DrugMatrix in vitro pharmacology data”
# Key:
# [1] = DRUGMATRIX: Atrial Natriuretic Factor (ANF) radioligand binding (ligand: [125I] ANF (rat)); format: cell membranes, Cavia porcellus, Dunkin-Hartley, Adrenal gland, Membrane; details: Not Active = under 50% inhibition at 10 µM
# [2] = target: C-C chemokine receptor type 5 (Homo sapiens, UniProt P51681); format: cell membranes, Membrane; details: hek293; further: in other assays of this panel Not Active means under 50% inhibition at 10 µM
# Chain of C-C chemokine receptor type 5 (P51681 whole entry): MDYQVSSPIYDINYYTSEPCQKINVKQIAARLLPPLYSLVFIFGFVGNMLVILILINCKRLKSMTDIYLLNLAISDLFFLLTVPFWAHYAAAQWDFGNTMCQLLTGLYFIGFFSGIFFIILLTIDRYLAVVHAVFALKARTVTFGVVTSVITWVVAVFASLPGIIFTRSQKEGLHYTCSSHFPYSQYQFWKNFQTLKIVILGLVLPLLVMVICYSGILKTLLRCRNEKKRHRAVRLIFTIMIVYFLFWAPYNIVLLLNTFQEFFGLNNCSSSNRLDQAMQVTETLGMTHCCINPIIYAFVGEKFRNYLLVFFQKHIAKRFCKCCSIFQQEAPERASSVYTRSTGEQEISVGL
# [3] = target: T1, 3-hydroxy-3-methylglutaryl-coenzyme A reductase (Homo sapiens, UniProt P04035); parameters: species or system Escherichia coli;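 further: enzyme inhibition assay of HMG-CoA reductase using radiolabeled [14C]HMG-CoA as substrate; in other assays of this panel Not Active means under 50% inhibition at 10 µM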
# T1 sequence (P04035 whole entry): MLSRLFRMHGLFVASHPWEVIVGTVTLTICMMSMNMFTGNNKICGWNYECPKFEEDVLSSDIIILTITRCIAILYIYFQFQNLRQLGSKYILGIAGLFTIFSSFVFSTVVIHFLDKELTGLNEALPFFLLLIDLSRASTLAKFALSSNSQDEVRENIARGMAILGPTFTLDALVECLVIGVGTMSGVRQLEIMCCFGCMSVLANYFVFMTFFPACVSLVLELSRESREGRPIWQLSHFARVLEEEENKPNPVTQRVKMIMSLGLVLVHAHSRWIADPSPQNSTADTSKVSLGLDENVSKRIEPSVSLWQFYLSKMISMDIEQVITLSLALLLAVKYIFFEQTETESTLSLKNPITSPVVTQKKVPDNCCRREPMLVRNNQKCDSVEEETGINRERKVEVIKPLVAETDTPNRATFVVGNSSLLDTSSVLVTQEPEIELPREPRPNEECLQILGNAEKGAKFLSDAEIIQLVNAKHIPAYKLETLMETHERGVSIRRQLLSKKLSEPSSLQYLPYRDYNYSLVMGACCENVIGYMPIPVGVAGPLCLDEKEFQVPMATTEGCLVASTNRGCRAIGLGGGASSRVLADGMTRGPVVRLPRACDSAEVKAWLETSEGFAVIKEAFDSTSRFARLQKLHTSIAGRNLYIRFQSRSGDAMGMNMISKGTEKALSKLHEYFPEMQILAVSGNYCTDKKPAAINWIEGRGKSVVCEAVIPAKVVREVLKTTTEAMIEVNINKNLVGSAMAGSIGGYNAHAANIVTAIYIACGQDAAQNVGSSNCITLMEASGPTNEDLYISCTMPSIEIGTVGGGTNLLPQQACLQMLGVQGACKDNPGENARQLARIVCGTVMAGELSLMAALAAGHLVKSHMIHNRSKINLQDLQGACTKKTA
# [4] = target: Vascular endothelial growth factor receptor 1 (Homo sapiens, UniProt P17948); format: cell-based; details: huvec; further: in other assays of this panel Not Active means under 50% inhibition at 10 µM
# Chain of Vascular endothelial growth factor receptor 1 (P17948 whole entry): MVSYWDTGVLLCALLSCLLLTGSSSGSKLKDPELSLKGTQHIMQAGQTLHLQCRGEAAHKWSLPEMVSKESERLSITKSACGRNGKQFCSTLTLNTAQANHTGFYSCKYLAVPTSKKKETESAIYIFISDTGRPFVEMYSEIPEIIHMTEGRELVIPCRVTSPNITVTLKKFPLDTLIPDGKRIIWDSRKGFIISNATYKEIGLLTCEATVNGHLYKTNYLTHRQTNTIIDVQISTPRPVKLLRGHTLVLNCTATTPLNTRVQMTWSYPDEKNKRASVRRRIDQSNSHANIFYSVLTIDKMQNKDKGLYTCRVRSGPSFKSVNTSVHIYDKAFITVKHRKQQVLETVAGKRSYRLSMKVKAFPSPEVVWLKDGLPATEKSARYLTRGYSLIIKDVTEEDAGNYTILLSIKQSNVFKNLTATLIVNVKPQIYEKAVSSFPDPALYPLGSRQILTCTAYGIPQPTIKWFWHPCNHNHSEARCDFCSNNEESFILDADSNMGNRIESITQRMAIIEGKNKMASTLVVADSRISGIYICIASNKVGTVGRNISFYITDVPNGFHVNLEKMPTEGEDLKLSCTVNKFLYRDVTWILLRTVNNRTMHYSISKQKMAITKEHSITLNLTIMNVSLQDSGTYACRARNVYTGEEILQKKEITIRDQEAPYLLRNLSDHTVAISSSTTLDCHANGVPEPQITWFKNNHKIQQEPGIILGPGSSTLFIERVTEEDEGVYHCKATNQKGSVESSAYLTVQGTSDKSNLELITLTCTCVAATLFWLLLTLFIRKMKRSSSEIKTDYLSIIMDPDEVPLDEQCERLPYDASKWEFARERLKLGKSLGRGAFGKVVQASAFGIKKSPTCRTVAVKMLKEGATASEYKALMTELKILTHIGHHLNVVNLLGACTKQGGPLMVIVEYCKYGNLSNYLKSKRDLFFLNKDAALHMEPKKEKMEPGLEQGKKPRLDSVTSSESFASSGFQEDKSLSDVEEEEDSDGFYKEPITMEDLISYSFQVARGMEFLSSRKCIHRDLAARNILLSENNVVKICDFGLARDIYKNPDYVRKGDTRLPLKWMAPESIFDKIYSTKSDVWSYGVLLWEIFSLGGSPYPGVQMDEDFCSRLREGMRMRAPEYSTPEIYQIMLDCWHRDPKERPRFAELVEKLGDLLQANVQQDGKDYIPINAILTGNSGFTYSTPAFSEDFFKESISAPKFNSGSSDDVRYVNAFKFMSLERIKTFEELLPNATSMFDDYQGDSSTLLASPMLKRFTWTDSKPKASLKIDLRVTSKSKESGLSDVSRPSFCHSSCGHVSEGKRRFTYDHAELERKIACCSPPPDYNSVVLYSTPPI
# [5] = target: 5-hydroxytryptamine receptor 6 (Homo sapiens, UniProt P50406); format: cell membranes, HeLa, Membrane; further: in other assays of this panel Not Active means under 50% inhibition at 10 µM
# Chain of 5-hydroxytryptamine receptor 6 (P50406 whole entry): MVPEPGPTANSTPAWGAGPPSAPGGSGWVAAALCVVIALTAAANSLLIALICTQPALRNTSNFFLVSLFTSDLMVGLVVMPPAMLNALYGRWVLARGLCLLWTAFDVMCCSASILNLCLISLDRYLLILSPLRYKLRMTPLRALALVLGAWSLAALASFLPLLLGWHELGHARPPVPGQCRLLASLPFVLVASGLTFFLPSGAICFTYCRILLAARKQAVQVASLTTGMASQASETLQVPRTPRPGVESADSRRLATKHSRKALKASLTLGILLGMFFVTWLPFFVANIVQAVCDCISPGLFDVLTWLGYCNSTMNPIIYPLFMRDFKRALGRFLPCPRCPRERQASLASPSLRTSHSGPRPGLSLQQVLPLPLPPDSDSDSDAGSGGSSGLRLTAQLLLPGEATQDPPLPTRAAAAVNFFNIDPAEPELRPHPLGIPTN
# [6] = target: T2, Nitric oxide synthase, inducible (Mus musculus, UniProt P29477); parameters: species or system Escherichia coli
# T2 sequence (P29477 whole entry): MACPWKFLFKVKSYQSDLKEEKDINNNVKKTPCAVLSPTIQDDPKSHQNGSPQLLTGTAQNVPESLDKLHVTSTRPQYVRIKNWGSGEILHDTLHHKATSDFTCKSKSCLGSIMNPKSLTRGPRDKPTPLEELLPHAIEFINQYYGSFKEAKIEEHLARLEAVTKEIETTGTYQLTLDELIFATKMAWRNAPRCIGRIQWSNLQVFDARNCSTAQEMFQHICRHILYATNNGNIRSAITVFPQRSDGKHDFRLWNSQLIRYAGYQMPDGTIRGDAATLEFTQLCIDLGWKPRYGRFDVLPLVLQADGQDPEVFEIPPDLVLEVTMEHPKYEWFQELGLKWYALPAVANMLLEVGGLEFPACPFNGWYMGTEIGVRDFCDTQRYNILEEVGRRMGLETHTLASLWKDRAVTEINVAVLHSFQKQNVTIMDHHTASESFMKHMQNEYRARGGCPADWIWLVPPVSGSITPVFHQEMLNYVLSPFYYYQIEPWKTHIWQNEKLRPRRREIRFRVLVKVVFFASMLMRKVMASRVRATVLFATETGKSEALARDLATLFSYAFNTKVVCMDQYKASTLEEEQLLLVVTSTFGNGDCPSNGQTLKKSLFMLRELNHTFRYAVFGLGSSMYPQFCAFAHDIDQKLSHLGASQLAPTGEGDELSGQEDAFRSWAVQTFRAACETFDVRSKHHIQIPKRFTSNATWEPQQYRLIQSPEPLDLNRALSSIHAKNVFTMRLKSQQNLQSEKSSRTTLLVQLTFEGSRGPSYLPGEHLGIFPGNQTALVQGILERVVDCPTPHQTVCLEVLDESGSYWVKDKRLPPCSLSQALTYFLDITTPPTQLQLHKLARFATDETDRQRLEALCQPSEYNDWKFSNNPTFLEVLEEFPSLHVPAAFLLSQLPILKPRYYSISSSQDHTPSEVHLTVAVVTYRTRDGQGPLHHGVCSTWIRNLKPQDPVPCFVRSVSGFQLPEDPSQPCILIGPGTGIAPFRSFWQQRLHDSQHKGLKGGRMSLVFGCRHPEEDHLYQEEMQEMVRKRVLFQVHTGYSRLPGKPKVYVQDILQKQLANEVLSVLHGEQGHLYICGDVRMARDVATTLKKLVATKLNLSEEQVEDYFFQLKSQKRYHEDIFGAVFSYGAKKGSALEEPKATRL
# Leukotriene C4 synthase = target: T3, Leukotriene C4 synthase (Cavia porcellus, UniProt A6XA80); assay: biochemical; format: tissue-based, Lung
# T3 sequence (A6XA80 whole entry): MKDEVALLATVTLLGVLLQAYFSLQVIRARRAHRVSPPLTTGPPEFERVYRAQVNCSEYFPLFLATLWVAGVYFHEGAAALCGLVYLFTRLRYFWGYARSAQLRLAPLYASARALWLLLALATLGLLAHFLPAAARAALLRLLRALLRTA
# Acetylcholinesterase = Acetylcholinesterase (Homo sapiens, UniProt P22303); assay: DRUGMATRIX: Acetylcholinesterase enzyme inhibition (substrate: acetylthiocholine); format: cell-based, HEK293; details: Not Active = under 50% inhibition at 10 µM
# Chain of Acetylcholinesterase (P22303 whole entry): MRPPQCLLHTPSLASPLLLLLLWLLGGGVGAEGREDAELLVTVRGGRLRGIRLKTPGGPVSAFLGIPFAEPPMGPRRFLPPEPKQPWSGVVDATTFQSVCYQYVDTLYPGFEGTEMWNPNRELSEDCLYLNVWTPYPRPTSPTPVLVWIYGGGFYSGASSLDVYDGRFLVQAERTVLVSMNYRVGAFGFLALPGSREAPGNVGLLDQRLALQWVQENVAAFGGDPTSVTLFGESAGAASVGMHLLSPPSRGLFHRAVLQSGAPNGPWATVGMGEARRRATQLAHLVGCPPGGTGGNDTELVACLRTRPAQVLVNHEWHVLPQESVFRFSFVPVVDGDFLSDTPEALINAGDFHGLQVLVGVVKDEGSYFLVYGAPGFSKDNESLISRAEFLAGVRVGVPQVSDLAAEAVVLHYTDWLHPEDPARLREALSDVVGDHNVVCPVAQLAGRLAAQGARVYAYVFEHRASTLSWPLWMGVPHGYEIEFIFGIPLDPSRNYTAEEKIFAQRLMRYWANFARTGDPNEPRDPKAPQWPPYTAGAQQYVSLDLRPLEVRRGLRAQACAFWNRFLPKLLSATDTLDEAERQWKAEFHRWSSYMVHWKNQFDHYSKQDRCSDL
# D(3) dopamine receptor = D(3) dopamine receptor (Homo sapiens, UniProt P35462); assay: DRUGMATRIX: Dopamine D3 radioligand binding (ligand: [3H] Spiperone); format: cell membranes, CHO, Membrane
# Chain of D(3) dopamine receptor (P35462 whole entry): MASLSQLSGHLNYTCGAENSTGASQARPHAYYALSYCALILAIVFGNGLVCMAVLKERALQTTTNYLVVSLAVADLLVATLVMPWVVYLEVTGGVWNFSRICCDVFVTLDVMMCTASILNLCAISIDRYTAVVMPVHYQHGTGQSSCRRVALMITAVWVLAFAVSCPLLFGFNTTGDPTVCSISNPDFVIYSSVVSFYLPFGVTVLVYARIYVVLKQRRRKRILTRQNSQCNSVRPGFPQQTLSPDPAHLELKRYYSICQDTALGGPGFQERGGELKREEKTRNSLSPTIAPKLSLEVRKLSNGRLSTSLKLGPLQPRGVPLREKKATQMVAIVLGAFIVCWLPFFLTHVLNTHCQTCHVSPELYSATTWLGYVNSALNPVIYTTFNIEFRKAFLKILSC
# [7] = target: Sigma non-opioid intracellular receptor 1 (Homo sapiens, UniProt Q99720); assay: DRUGMATRIX: Sigma1 radioligand binding (ligand: [3H] Haloperidol); format: cell membranes, Jurkat, Membrane; details: Not Active = under 50% inhibition at 10 µM
# Chain of Sigma non-opioid intracellular receptor 1 (Q99720 whole entry): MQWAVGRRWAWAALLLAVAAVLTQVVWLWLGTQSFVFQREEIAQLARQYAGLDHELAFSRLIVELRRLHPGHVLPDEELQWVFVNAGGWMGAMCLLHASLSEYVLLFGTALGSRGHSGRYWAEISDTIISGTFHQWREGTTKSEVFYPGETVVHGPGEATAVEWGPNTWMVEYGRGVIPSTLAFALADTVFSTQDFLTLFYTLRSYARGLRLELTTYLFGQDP
Compound,IC50 [1],Ki [1],IC50 [2],IC50 [3],IC50 [4],IC50 ([5]; hela),IC50 [6],IC50 (Leukotriene C4 synthase),IC50 (Acetylcholinesterase; hek293),IC50 (D(3) dopamine receptor; cho),IC50 ([7]; jurkat),other results
O=[N+]([O-])c1cc([As](=O)(O)O)ccc1O [ROXARSONE],Not Active,Not Active,Not Active,Not Active,Not Active,Not Active,Not Active,Not Active,Not Active,Not Active,Not Active,Ki [2]: Not Active; Ki [3]: Not Active; Ki [4]: Not Active; Ki ([5]; hela): Not Active; Ki [6]: Not Active; Ki (Leukotriene C4 synthase): Not Active; Ki (Acetylcholinesterase; hek293): Not Active; Ki (D(3) dopamine receptor; cho): Not Active; Ki ([7]; jurkat): Not Active
CC1CN(c2cc3c(cc2F)c(=O)c(C(=O)O)cn3-c2ccc(F)cc2F)CCN1 (stereo not given) [TEMAFLOXACIN],Not Active,Not Active,Not Active,Not Active,Not Active,Not Active,Not Active,Not Active,Not Active,Not Active,Not Active,
COc1ccc(CCN2CCC(Nc3nc4ccccc4n3Cc3ccc(F)cc3)CC2)cc1 [ASTEMIZOLE],,,Not Active,Not Active,Not Active,,Not Active,Not Active,Not Active,,,
CC1(C)[C@H]2CC[C@]1(C)C(=O)C2 [(-)-CAMPHOR],Not Active,Not Active,Not Active,Not Active,Not Active,Not Active,Not Active,Not Active,Not Active,Not Active,Not Active,
CC(CCc1ccccc1)NCC(O)c1ccc(O)c(C(N)=O)c1 (stereo not given) [LABETALOL],Not Active,Not Active,Not Active,Not Active,Not Active,Not Active,Not Active,Not Active,Not Active,Not Active,,IC50 ([7]; read-out: IC50): 1810 nM; Ki ([7]; read-out: Ki): 763 nM
O=C(CCCN1CCC(O)(c2ccc(Cl)cc2)CC1)c1ccc(F)cc1 [HALOPERIDOL],,,Not Active,Not Active,Not Active,Not Active,Not Active,Not Active,Not Active,,,
CN(C)CCCN1c2ccccc2CCc2ccc(Cl)cc21 [CLOMIPRAMINE],,,Not Active,Not Active,Not Active,,Not Active,Not Active,Not Active,,,IC50 ([5]; read-out: IC50): 245 nM; Ki ([5]; read-out: Ki): 114 nM; IC50 (D(3) dopamine receptor; read-out: IC50): 139 nM; Ki (D(3) dopamine receptor; read-out: Ki): 47 nM; IC50 ([7]; read-out: IC50): 1360 nM; Ki ([7]; read-out: Ki): 572 nM
CN1CCN2c3ccccc3Cc3ccccc3C2C1 (stereo not given) [MIANSERIN],,,Not Active,Not Active,Not Active,,Not Active,Not Active,Not Active,Not Active,Not Active,
CSc1ccc2c(c1)N(CCC1CCCCN1C)c1ccccc1S2 (stereo not given) [THIORIDAZINE],,,Not Active,Not Active,Not Active,,Not Active,Not Active,Not Active,,,IC50 ([5]; read-out: IC50): 71 nM; Ki ([5]; read-out: Ki): 33 nM; IC50 ([7]; read-out: IC50): 363 nM; Ki ([7]; read-out: Ki): 153 nM
Clc1ccccc1C(c1ccccc1)(c1ccccc1)n1ccnc1 [CLOTRIMAZOLE],,,Not Active,Not Active,Not Active,,Not Active,Not Active,,,Not Active,IC50 ([5]; read-out: IC50): 12500 nM; Ki ([5]; read-out: Ki): 5820 nM; IC50 (Acetylcholinesterase; read-out: IC50): 19400 nM; IC50 (D(3) dopamine receptor; read-out: IC50): 2650 nM; Ki (D(3) dopamine receptor; read-out: Ki): 899 nM
CC(=O)[C@H]1CC[C@H]2[C@@H]3CCC4=CC(=O)CC[C@]4(C)[C@H]3CC[C@]12C [PROGESTERONE],Not Active,Not Active,Not Active,Not Active,Not Active,Not Active,Not Active,Not Active,Not Active,Not Active,,
CC(C)(O)c1ccccc1CC[C@@H](SCC1(CC(=O)O)CC1)c1cccc(/C=C/c2ccc3ccc(Cl)cc3n2)c1 [MONTELUKAST],,,Not Active,Not Active,Not Active,Not Active,Not Active,Not Active,Not Active,,Not Active,
COC(=O)[C@@H]1[C@H]2C[C@H]3c4[nH]c5ccccc5c4CCN3C[C@@H]2CC[C@@H]1O [YOHIMBINE],Not Active,Not Active,Not Active,Not Active,Not Active,,Not Active,Not Active,Not Active,Not Active,Not Active,
COc1cccc(C2(O)CCCCC2CN(C)C)c1 (stereo not given) [TRAMADOL],,,Not Active,Not Active,Not Active,Not Active,Not Active,Not Active,Not Active,Not Active,Not Active,
